In paper PMC8869984, “Multifunctional Silver(I) Complexes with Metronidazole Drug Reveal Antimicrobial Properties and Antitumor Activity against Human Hepatoma and Colorectal Adenocarcinoma Cells” (Cancers, 2022):

Legend:
P. acnes ATCC 11827 = assay: micro-dilution broth method (MIC, MBC); assay type: cell-based, Propionibacterium acnes
V. parvula ATCC 10790 = assay: micro-dilution broth method (MIC, MBC); assay type: cell-based, Veillonella parvula
H. pylori ATCC 43504 = assay: micro-dilution broth method (MIC, MBC); assay type: cell-based
P. intermedia ATCC 25611 = assay: micro-dilution broth method (MIC, MBC); assay type: cell-based
[1] = test system: S. epidermidis ATCC 12228; assay: micro-dilution broth method (MIC, MBC); assay type: cell-based, Staphylococcus epidermidis
B. cereus ATCC 10876 = assay: micro-dilution broth method (MIC, MBC); assay type: cell-based, Bacillus cereus
S. aureus ATCC 25923 = assay: micro-dilution broth method (MIC, MBC); assay type: cell-based, Staphylococcus aureus
F. nucleatum ATCC 25586 = assay: micro-dilution broth method (MIC, MBC); assay type: cell-based, Fusobacterium nucleatum
HepG2 cells [2] = assay: NRU assay (lysosomal activity), 72 h exposure; assay type: cell-based, human; settings: mean ± SD, n = 3
Protocol: (§1) The human hepatoma (HepG2) and colorectal adenocarcinoma (Caco-2) cells were purchased from the American Type Culture Collection: ATCC HB-8065 and ATCC HTB-37, respectively. These cells were cultured in Minimum Essential Medium Eagle (MEME) (ATCC). The murine fibroblasts cell line (Balb/c 3T3 clone A31) (gift from the Department of Swine Diseases of the National Veterinary Research Institute in Pulawy) was cultured in Dulbecco’s Modified Eagle Medium (DMEM) (ATCC). The media were supplemented with 10% BCS (Balb/c 3T3), 10% FBS (HepG2), 20% FBS (Caco-2), 1% L-glutamine, 1% antibiotic solution. The cells were maintained in 75 cm^2 cell culture flasks (NUNC) in a humidified incubator at 37 °C in an atmosphere of 5% CO2. The medium was refreshed every two or three days, and the cells were trypsinized by 0.25% trypsin–0.02% EDTA after reaching 70–80% confluence. Single cell suspensions were prepared and adjusted to a density of 2 × 10^5 cell/mL^−1 (HepG2), 1 × 10^5 cell/mL^−1 (Caco-2) and 5 × 10^4 cell/mL^−1 (Balb/c 3T3). The cell suspension was transferred to 96-well plates (100 µL/well) and incubated for 24 h before the exposure to the studied compounds. Stock solutions of ligands and metal complexes were prepared in sterile water and diluted with culture medium to obtain a concentration range from 0.1 to 10 µM. The final concentration of sterile water was 0.1% in the medium. […] As a negative control, cultured cells were grown in the absence of studied compounds. Each concentration was tested in six replicates in three independent experiments. Cytotoxicity was assessed after 72 h of exposure of the cells to compounds. The medium was not changed during the incubation time.
This method is based on staining living cells with neutral red, which readily diffuses through the plasma membrane and accumulates in lysosomes. […] After 10 min of shaking, the absorbance of the dissolved NR was measured using a Synergy HTX multi-mode reader (BioTek® Instruments Inc., Winooski, VT, USA) at 540 nm using a blank as a reference. Cytotoxicity was expressed as a percentage of the negative control. […]

E. coli ATCC 25922 = assay: micro-dilution broth method (MIC, MBC); assay type: cell-based, Escherichia coli
B. fragilis ATCC 10240 = assay: micro-dilution broth method (MIC, MBC); assay type: cell-based, Bacteroides fragilis
A. israeli ATCC 10049 = assay: micro-dilution broth method (MIC, MBC); assay type: cell-based, Actinomyces israelii
K. pneumoniae ATCC 13883 = assay: micro-dilution broth method (MIC, MBC); assay type: cell-based, Klebsiella pneumoniae
HepG2 cells [3] = assay: MTT assay (mitochondrial activity), 72 h exposure; assay type: cell-based, human; settings: mean ± SD, n = 3
Protocol: as §1
The metabolic activity of living cells was assessed by the measurement of the activity of dehydrogenases. […] The plate was shaken for 15 min at room temperature and transferred to a microplate reader Synergy HTX multi-mode reader (BioTek® Instruments Inc., Winooski, VT, USA) to measure the absorbance at 570 nm, using a blank as a reference. Cytotoxicity was expressed as a percentage of the negative control. […]

[4] = P. acnes ATCC 11827, value in brackets
[5] = V. parvula ATCC 10790, value in brackets
[6] = H. pylori ATCC 43504, value in brackets
[7] = P. intermedia ATCC 25611, value in brackets
[8] = S. epidermidis ATCC 12228, value in brackets
[9] = B. cereus ATCC 10876, value in brackets
[10] = S. aureus ATCC 25923, value in brackets
[11] = F. nucleatum ATCC 25586, value in brackets
[12] = E. coli ATCC 25922, value in brackets
[13] = B. fragilis ATCC 10240, value in brackets
[14] = A. israeli ATCC 10049, value in brackets
[15] = K. pneumoniae ATCC 13883, value in brackets

For `O=S(=O)([O-])[O-].[Ag+].[Ag+]` [Ag2SO4, silver sulfate], the MBC (P. acnes ATCC 11827; P. acnes ATCC 11827) was 500 mg/L, the MIC (P. acnes ATCC 11827; P. acnes ATCC 11827) was 125 mg/L and the MBC (P. acnes ATCC 11827; [4]) was 1.6 µM/mL. For the same compound, the MIC (P. acnes ATCC 11827; [4]) was 0.4 µM/mL, the MBC (V. parvula ATCC 10790; V. parvula ATCC 10790) was 62.5 mg/L and the MIC (V. parvula ATCC 10790; V. parvula ATCC 10790) was 62.5 mg/L. The MBC (V. parvula ATCC 10790; [5]) was 0.2 µM/mL, the MIC (V. parvula ATCC 10790; [5]) was 0.2 µM/mL and the MBC (H. pylori ATCC 43504; H. pylori ATCC 43504) was 15.6 mg/L. For the same compound, the MIC (H. pylori ATCC 43504; H. pylori ATCC 43504) was 15.6 mg/L, the MBC (H. pylori ATCC 43504; [6]) was 0.05 µM/mL and the MIC (H. pylori ATCC 43504; [6]) was 0.05 µM/mL. For the same compound, the MBC (P. intermedia ATCC 25611; P. intermedia ATCC 25611) was 7.8 mg/L, the MIC (P. intermedia ATCC 25611; P. intermedia ATCC 25611) was 7.8 mg/L and the MBC (P. intermedia ATCC 25611; [7]) was 0.025 µM/mL. It also gave an MIC (P. intermedia ATCC 25611; [7]) of 0.025 µM/mL, an MBC ([1]; S. epidermidis ATCC 12228) of 31.3 mg/L and an MIC ([1]; S. epidermidis ATCC 12228) of 15.6 mg/L. It also gave an MBC [1, 8] of 0.1 µM/mL, an MIC [1, 8] of 0.05 µM/mL and an MBC (B. cereus ATCC 10876; B. cereus ATCC 10876) of 500 mg/L. For the same compound, the MIC (B. cereus ATCC 10876; B. cereus ATCC 10876) was 31.3 mg/L, the MBC (B. cereus ATCC 10876; [9]) was 1.6 µM/mL and the MIC (B. cereus ATCC 10876; [9]) was 0.1 µM/mL. It also gave an MBC (S. aureus ATCC 25923; S. aureus ATCC 25923) of 31.3 mg/L, an MIC (S. aureus ATCC 25923; S. aureus ATCC 25923) of 15.6 mg/L and an MBC (S. aureus ATCC 25923; [10]) of 0.1 µM/mL. It also gave an MIC (S. aureus ATCC 25923; [10]) of 0.05 µM/mL, an MBC (F. nucleatum ATCC 25586; F. nucleatum ATCC 25586) of 31.3 mg/L and an MIC (F. nucleatum ATCC 25586; F. nucleatum ATCC 25586) of 31.3 mg/L. For the same compound, the MBC (F. nucleatum ATCC 25586; [11]) was 0.1 µM/mL, the MIC (F. nucleatum ATCC 25586; [11]) was 0.1 µM/mL and the IC50 (HepG2 cells [2]) was over 10 µM. It also gave an MBC (E. coli ATCC 25922; E. coli ATCC 25922) of 62.5 mg/L, an MIC (E. coli ATCC 25922; E. coli ATCC 25922) of 62.5 mg/L and an MBC (E. coli ATCC 25922; [12]) of 0.2 µM/mL. The MIC (E. coli ATCC 25922; [12]) was 0.2 µM/mL, the MBC (B. fragilis ATCC 10240; B. fragilis ATCC 10240) was 1000 mg/L and the MIC (B. fragilis ATCC 10240; B. fragilis ATCC 10240) was 250 mg/L. It also gave an MBC (B. fragilis ATCC 10240; [13]) of 3.2 µM/mL, an MIC (B. fragilis ATCC 10240; [13]) of 0.8 µM/mL and an MBC (A. israeli ATCC 10049; A. israeli ATCC 10049) of 15.6 mg/L. For the same compound, the MIC (A. israeli ATCC 10049; A. israeli ATCC 10049) was 0.98 mg/L, the MBC (A. israeli ATCC 10049; [14]) was 0.05 µM/mL and the MIC (A. israeli ATCC 10049; [14]) was 0.003 µM/mL. It also gave an MBC (K. pneumoniae ATCC 13883; K. pneumoniae ATCC 13883) of 31.3 mg/L, an MIC (K. pneumoniae ATCC 13883; K. pneumoniae ATCC 13883) of 31.3 mg/L and an MBC (K. pneumoniae ATCC 13883; [15]) of 0.1 µM/mL. For the same compound, the MIC (K. pneumoniae ATCC 13883; [15]) was 0.1 µM/mL and the IC50 (HepG2 cells [3]) was over 10 µM.
